Test [1] concerns primary brain endothelial cell monolayers. The note with it: ref [33] Bocsik et al.; cited from earlier work. An excerpt:
(§1) This study was also aimed at developing cyclic ADTHAV peptide by combining important residues from the ADT peptide (i.e., ADTC5) and HAV peptide (i.e., HAV6). Because ADTC5 and HAV6 bind at different sites on the EC1 domain, combining the two active sequences could provide synergistic activity form both parent peptides on cyclic ADTHAV. In this case, cyclic ADTHAV contains the Thr-Pro-Pro-Val sequence from ADTC5 and Ser-His-Ala-Val sequence from HAV6. The hypothesis is that the combined sequence enhances BBB modulatory activity better than the parent ADTC5 and HAV6. The selection of the Thr-Pr ...

Test [2] has as its system BBB. The note with it: cited from earlier work. On the procedure: The duration of time of the BBB opening is an important factor to consider for using cadherin peptides to deliver molecules to the brain. This is because it is dangerous to keep the BBB open for a long period of time, allowing unwanted molecules to enter the brain. However, it is necessary to maintain the opening for an adequate amount of time to allow the delivered molecule to enter the brain with the necessary dose. For example, HAV6 has an opening window of less than 1 h to allow a small molecule such as IRdye-R800 and gadopentetic acid (Gd-DTPA) to enter the brain, while ADTC5 has a durati ...

The test system of test [3] is brain (C57BL/6 mice). The note with it: recent studies, ref not given; cited from earlier work. An excerpt:
Treating brain diseases is a challenge as it is difficult to deliver drugs through the BBB into the brain. As many approaches to solve this problem have failed clinically, it is important to investigate new methods to improve brain delivery of molecules for diagnosing and treating brain diseases. This study was focused on designing, synthesizing, and evaluating new cyclic peptides for modulating the BBB to increase paracellular protein delivery into the brain.

The test system of test [4] is brain (C57BL/6 mice). The note with it: peptide 13 µmol/kg, albumin 21.6 nmol/kg; ref not given; cited from earlier work. An excerpt:
Treating brain diseases is a challenge as it is difficult to deliver drugs through the BBB into the brain. As many approaches to solve this problem have failed clinically, it is important to investigate new methods to improve brain delivery of molecules for diagnosing and treating brain diseases. This study was focused on designing, synthesizing, and evaluating new cyclic peptides for modulating the BBB to increase paracellular protein delivery into the brain. […] It is proposed that the rigidity imposed on the peptide backbone of the cyclic peptide reduced the ensemble ...

Test [5] deals with brain. The note with it: cited from earlier work. The procedure: (§2) Several attempts have been made to overcome this challenge using various invasive and non-invasive methods. Intracerebral ventricular (ICV) delivery is an invasive injection technique in which drug substances are administered directly into the cerebrospinal fluid in cerebral ventricles. Alternatively, many non-invasive methods have been investigated in vivo with various levels of success using receptor-mediated drug delivery systems, liposomes, microbubble-enhanced diagnostic ultrasound (MEUS), and nanoparticles. The most successful non-invasive method for delivering drugs to ...

For test [6], the system named is medulloblastoma brain tumor. The note with it: ref [24], cited from earlier work. On the procedure:
as §2

Test [7] addresses T1, EC1 domain of E-cadherin (Homo sapiens, UniProt P12830).
T1 sequence (P12830 155-262 limits assumed): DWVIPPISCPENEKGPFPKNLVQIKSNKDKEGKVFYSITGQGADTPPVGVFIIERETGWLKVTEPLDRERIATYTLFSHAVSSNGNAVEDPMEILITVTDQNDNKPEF
The note with it: NMR studies; ref [26]; cited from earlier work. From the text:
Cadherin peptides interrupt the cadherin–cadherin interactions by binding to the extracellular domains of cadherins allowing delivered molecules to pass through the […] of the BBB. […] Using the X-ray structure of C-cadherin as a model, it is seen that the cadherin molecules can form cis- and trans-interactions with each other in a homotypic fashion. The cis-cadherin interactions were formed via binding of the EC1 domain from one ca ...

Test [8] deals with brains of C57BL/6 mice. The experiment in a line: In vivo brain delivery of IRdye800CW-IgG mAb (NIRF quantification). The note with it: n = 3. On the procedure:
The activity of each peptide in enhancing BBB penetration was evaluated by delivering IRdye800CW donkey anti-goat IgG mAb in C57BL/6 mice; the amounts of mAb in the brain were determined using near infrared fluorescence (NIRF) imaging. Each group contains 3 mice per group (n = 3) with a mixture of male and female mice, selected randomly for each arm of the study. The injection solution was prepared by adding 600 µL PBS into 0.5 mg lyophilized IgG mAb; then, approximately 1.5 mg lyophilized peptide was added into the mixture yielding the injectable formulation. A 100 µL solution of a mixture containing IgG mAb (21.6 nmol/kg) along with 13 µmol/kg peptide was administered via tail vein. As a control, 100 µL of IgG mAb alone was administered via i.v. route. After the delivered molecules had been circulating for 15 min, the mice were sacrificed; then, a mixture of PBS with 0.5% Tween-20 was administered for cardiac perfusion to remove the blood and delivered molecules from the brain microvessels. The brain and other organs such as lung, heart, spleen, liver, and kidney were harvested and rinsed with PBS. The isolated organs were scanned with Odyssey® CLx for mAb quantification.
The brain deposition of IgG mAb was also quantified by NIRF imaging in brain homogenates. The isolated brains were mechanically homogenized in 2.0 mL of PBS. To make the standard solutions, IRDye800CW IgG mAb stock solution (70 µg/mL) was prepared; it was then diluted with various amounts of PBS to make six different mAb concentrations. To generate a calibration curve, the brain homogenate (200 µL) was aliquoted out to a 96-well plate. A total of 10 µL of each concentration of IgG mAb was added to three different wells of blank brain homogenates. The standard spiked homogenates were at a range of 10–200 ng/mL IgG mAb in brain homogenate. The wells were scanned using the Odyssey® CLx scanner, and the signal intensities vs. concentrations of mAb per gram of brain were used to generate a calibration curve.
ANOVA with Student–Newman–Keuls was used to compare the data for determining statistical significance for IgG mAb deposition in the brains. A p-value of less than 0.05 was used as a criterion for a significant difference in data comparison. Numeric results are presented as: mean ± SEM.
A calibration curve was generated to determine the amount of IgG mAb in the brain by spiking blank brain homogenates with a concentration range from 10 to 200 ng/mL, and good linearity with R^2 ≥ 0.98 was achieved. […] The average amounts of IgG mAb in the brains of HAV6-treated and control animals were 3.4 ± 0.4 and 4.0 ± 0.5 pmol/g brain, respectively. In contrast, the average amounts of mAb in the brains of cyclic HAVN1- and HAVN2-treated mice were 8.6 ± 0.5 and 8.8 ± 0.6 pmol/g brain, respectively. The BBB modulatory activities of ADTC5, linear ADTHAV, and cyclic ADTHAV were also compared to the control (Figure 5). […] The average brain deposition of IgG mAb were 11.8 ± 0.5, 15.7 ± 0.8, and 13.3 ± 0.7 pmol/g brain for linear ADTHAV, cyclic ADTHAV, and ADTC5, respectively.

In test [9] the test system is BBB. The note with it: ref [22], cited from earlier work. From the text:
Treating brain diseases is a challenge as it is difficult to deliver drugs through the BBB into the brain. As many approaches to solve this problem have failed clinically, it is important to investigate new methods to improve brain delivery of molecules for diagnosing and treating brain diseases. This study was focused on designing, synthesizing, and evaluating new cyclic peptides for modulating the BBB to increase paracellular protein delivery into the brain. […] This is because it is dangerous to keep the BBB open for a long period of time, allowing unwanted molecules to enter the brain. However, it is necessary to maintain the opening for an adequate amount of time to allow the delivered molecule to enter the brain with the necessary dose. For example, HAV6 has an opening window of less than 1 h to allow a small molecule such as IRdye-R800 and gadopentetic acid (Gd-DTPA) to enter the brain, while ADTC5 has a durati ...

Test [10] relates to MDCK cell monolayers / in vivo BBB. The note with it: vs ADTC1 or ADTC5; ref [20]; cited from earlier work.
Source text: as §1

For test [11], the system named is BBB. The note with it: disulfide cyclic peptides vs parent linear peptides; ref [19],[20]; cited from earlier work. From the text:
The goal of this study was to design and synthesize novel cyclic peptides derived from HAV6 and ADTC5 peptides to improve their BBB modulatory activity and selectivity by forming a peptide bond from the N- to C-termini (Table 1, Figure 1). The hypothesis is that the formation of N-to-C-termini cyclic peptides increases the backbone rigidity of the peptide to improve binding affinity and selectivity for the EC1 domain of cadherin as well as improving plasma stability of the cyclic peptide compared to its parent linear peptide. Previously, cHAVc3 and ADTC5 cyclic peptides were formed using a dis ...

Test [12] deals with MDCK cell monolayers. The note with it: ref [19], cited from earlier work. The procedure: Previously, cyclic cHAVc1 (cyclo(1,8)Ac-CSHAVASC-NH2) and cHAVc3 (cyclo(1,6)Ac-CSHAVC-NH2) were prepared and compared to a linear HAV4 (Ac-SHAVAS-NH2) in modulating the intercellular junctions in vitro and in vivo [19]. […] An alanine scanning study was carried out to evaluate the role of each amino acid in HAV6 peptide, and the biological activity of each alanine mutant peptide was evaluated in lowering the TEER values of MDCK cell monolayers. Mutation of the Ser1 to Ala1 residue reduced the junction modulatory activity of the HAV6 mutant; ...

For test [13], the system named is brain. The note with it: MRI, mice; ref [19]; cited from earlier work. On the procedure: Previously, cyclic cHAVc1 (cyclo(1,8)Ac-CSHAVASC-NH2) and cHAVc3 (cyclo(1,6)Ac-CSHAVC-NH2) were prepared and compared to a linear HAV4 (Ac-SHAVAS-NH2) in modulating the intercellular junctions in vitro and in vivo [19].

Here are results for 4 substances from PMC6920923, “Improving In Vivo Brain Delivery of Monoclonal Antibody Using Novel Cyclic Peptides” (Pharmaceutics, 2019).

“Also recorded” adds a separate entry of the source.

Turning to “Ac-ADTPPV-NH2 [ADT6, linear ADT peptide of Bocsik et al]”, the “disruption of intercellular junctions (TEER), in words” value in [1] is “reversibly disrupts the intercellular junctions of primary brain endothelial cell monolayers”.
Regarding “Ac-SHAVSS-NH2 [HAV6, parent linear cadherin peptide]”, the “BBB window of opening for galbumin” value in test [2] (65 kDa galbumin, ref [22] for HAV6 galbumin data, none printed for ADTC5) is listed as less than 10 min. Moreover, in [2] (IRdye-R800 and Gd-DTPA, ref [20],[21]), the “opening window of BBB for small molecule (IRdye-R800 and Gd-DTPA)” value is “less than 1 h”. Further, in [3], the “brain delivery of 15 kDa lysozyme vs control, in words” value is listed as “significantly enhanced the brain delivery of 15 kDa lysozyme compared to the control”. In addition, the “brain delivery of albumin vs control, in words” value in [4] is given as “did not significantly enhance brain delivery of albumin; also recorded: no significant enhancement of albumin brain deposition”. Besides, in test [5] (HAV6 and ADTC5 collectively, 14C-mannitol, PEG, daunomycin, R800, Gd-DTPA, cLABL, cIBR7, galbumin etc., ref [18],[19],[20],[21],[22],[23]), the “brain delivery of various molecules, in words” value is reported as “increase the brain delivery of various molecules”. Also, the “oral and brain deliveries of eflornithine, in words” value in [5] (rats, ref [25]) was “simultaneously increased”. In test [6] (adenanthin + HAV6 vs adenanthin alone or placebo), the “survival and tumor growth, in words” value is “increased survival and suppressed tumor growth”. Also, the “delivery of adenanthin into brain, in words” value in test [6] (mice with medulloblastoma brain tumor) is reported as “significantly improve the delivery of an anticancer drug, adenanthin, into the brains of mice”. Besides, the “binding site on EC1 domain, in words” value in test [7] is given as “bind to the EC1 domain of E-cadherin at the interface of cis-cadherin interactions”. Further, the “amount of IgG mAb in the brain (brain deposition)” value in test [8] (IgG mAb 21.6 nmol/kg with or without 13 µmol/kg peptide, i.v. tail vein, 15 min circulation, PBS/0.5% Tween-20 perfusion, NIRF (Odyssey CLx) of brain homogenate, mean ± SEM) is 3.4 ± 0.4 pmol/g brain. Also, the “brain delivery of IgG mAb compared to control (IgG mAb alone), in words” value in [8] (IgG mAb 21.6 nmol/kg, peptide 13 µmol/kg i.v., 15 min, ANOVA Student–Newman–Keuls) is reported as “did not enhance brain delivery of IgG mAb compared to the control”. In test [9] (10-min delay between peptide and galbumin), the “BBB penetration of galbumin with 10-min delay after peptide, in words” value is listed as “does not allow the galbumin to cross the BBB”. Moreover, the “brain deposition of galbumin, in words” value in test [9] (galbumin 600 nmol/kg, living mice, MRI) is listed as “significant brain deposition of galbumin”. Further, the “BBB penetration of 65 kDa galbumin, delivered together with peptide, in words” value in [9] (high dose galbumin) is listed as “can increase the BBB penetration of galbumin”.
Consider “cyclo(1,6)Ac-CDTPPC-NH2 (disulfide) [ADTC6, earlier cyclic ADT peptide]”, for which the “activity of ADT peptide, in words” value in [10] is given as “lowered the activity of ADTC6 compared to ADTC5”.
In the case of “cyclo(1,6)Ac-CSHAVC-NH2 (disulfide) [cHAVc3, earlier disulfide cyclic HAV peptide]”, in [11], the “BBB modulatory activity and plasma stability vs parent linear peptides, in words” value was “enhanced BBB modulatory activity and plasma stability compared to their parent linear peptides”. In test [12] (TEER), the “lowering of TEER values of MDCK cell monolayers vs HAV4, in words” value was “better than a linear HAV4”. Also, in test [12] (compared to HAV4 (and cHAVc1)), the “junction modulatory activity in MDCK cell monolayers, in words” value is “more active compared to HAV4 and cHAVc1”. Moreover, in test [13], the “in vivo brain delivery of Gd-DTPA vs HAV4, in words” value was “better than a linear HAV4”. In test [7], the “binding site on EC1 domain, in words” value is “bind to the EC1 domain of E-cadherin at the interface of cis-cadherin interactions”.
